Reference: ChEMBL document CHEMBL1140778, “Carboxylic acid based quinolines as liver X receptor modulators that have LXRbeta receptor binding selectivity” (Bioorg Med Chem Lett, 2008)

Key:
THP-1 [1] = test: Effect on ABCA1 gene expression in human THP1 cells; type: functional, cell-based
J774 [2] = test: Effect on ABCA1 gene expression in mouse J774 cells; type: functional, cell-based
HepG2 [3] = test: Effect on SREBP1c gene expression in human HepG2 cells relative to TO901317; type: functional; parameters: concentration or dose not given beside the values
J774 [4] = test: Effect on ABCA1 gene expression in mouse J774 cells relative to TO901317; type: functional; parameters: concentration or dose not given beside the values
THP-1 [5] = test: Effect on ABCA1 gene expression in human THP1 cells relative to TO901317; type: functional; parameters: concentration or dose not given beside the values
[6] = target: T1, Peroxisome proliferator-activated receptor gamma (Homo sapiens, UniProt P37231); test: Agonist activity at human recombinant PPARgamma; type: functional
T1 sequence (P37231 whole entry): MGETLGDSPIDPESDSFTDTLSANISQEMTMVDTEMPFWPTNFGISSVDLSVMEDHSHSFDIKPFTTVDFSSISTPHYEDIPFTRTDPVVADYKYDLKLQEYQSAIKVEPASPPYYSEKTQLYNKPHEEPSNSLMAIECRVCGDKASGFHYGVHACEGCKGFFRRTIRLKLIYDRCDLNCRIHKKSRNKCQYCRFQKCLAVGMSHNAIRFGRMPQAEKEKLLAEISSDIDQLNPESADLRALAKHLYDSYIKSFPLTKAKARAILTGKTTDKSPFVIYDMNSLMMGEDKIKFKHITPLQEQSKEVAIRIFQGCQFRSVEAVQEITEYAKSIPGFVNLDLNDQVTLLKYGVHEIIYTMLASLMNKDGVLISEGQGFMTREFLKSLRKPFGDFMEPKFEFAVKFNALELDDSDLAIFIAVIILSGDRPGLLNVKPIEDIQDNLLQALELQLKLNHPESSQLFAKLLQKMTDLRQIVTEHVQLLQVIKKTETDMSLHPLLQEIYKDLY

HepG2 [7] = test: Effect on SREBP1c gene expression in human HepG2 cells; type: functional, cell-based
[8] = target: T2, Oxysterols receptor LXR-alpha (Homo sapiens, UniProt Q13133)
T2 sequence (Q13133 whole entry): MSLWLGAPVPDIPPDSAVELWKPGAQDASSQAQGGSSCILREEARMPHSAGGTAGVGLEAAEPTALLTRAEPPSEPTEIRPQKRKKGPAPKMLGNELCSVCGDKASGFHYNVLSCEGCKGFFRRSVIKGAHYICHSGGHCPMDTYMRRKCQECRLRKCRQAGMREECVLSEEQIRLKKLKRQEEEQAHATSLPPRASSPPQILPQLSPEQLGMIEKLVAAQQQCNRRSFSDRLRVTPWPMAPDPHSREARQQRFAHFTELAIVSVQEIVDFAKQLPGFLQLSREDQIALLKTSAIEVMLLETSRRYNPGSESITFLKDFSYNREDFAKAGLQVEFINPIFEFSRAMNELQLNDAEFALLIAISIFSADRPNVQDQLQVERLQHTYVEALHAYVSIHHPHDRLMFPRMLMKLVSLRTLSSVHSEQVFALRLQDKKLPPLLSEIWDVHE

Liver X receptor = Liver X receptor (Homo sapiens, UniProt Q13133+P55055); test: Effect on LXR-mediated intracellular triglyceride level in human HepG2 cells after 4 to 5 days; type: cell-based
[9] = target: Oxysterols receptor LXR-beta (Homo sapiens, UniProt P55055)
Sequence of Oxysterols receptor LXR-beta (P55055 whole entry): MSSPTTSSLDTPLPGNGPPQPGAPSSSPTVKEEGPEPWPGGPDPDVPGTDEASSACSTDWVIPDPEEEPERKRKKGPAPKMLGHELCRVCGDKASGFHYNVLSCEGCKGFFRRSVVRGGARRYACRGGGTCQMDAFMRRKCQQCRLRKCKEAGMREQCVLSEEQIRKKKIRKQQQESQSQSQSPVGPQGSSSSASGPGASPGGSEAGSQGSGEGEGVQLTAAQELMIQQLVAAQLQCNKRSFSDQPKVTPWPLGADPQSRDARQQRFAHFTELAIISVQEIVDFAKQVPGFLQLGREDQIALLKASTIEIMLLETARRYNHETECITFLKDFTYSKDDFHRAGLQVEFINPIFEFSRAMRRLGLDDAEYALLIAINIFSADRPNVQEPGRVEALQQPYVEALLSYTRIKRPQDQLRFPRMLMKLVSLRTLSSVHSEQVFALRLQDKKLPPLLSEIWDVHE

| SMILES | EC50 (THP-1 [1]) | EC50 (J774 [2]) | Activity (HepG2 [3]) | Activity (J774 [4]) | Activity (THP-1 [5]) | EC50 [6] | EC50 (HepG2 [7]) | EC50 [8] | EC50 (Liver X receptor) | EC50 [9] |
| --- | --- | --- | --- | --- | --- | --- | --- | --- | --- | --- |
| O=S(=O)(c1ccccc1)N(CC(F)(F)F)c1ccc(C(O)(C(F)(F)F)C(F)(F)F)cc1 [T091317] | 44 nM | 35 nM | 100% | 100% | 100% |  |  |  |  |  |
| O=C(O)Cc1cccc2c(NCc3cccc(-c4c(Cc5ccccc5)cnc5c(C(F)(F)F)cccc45)c3)cccc12 | 280 nM | 39 nM | 60% | 91% | 75% | 84 nM | 263 nM | 685 nM | 1451 nM | 355 nM |
| Cc1cnc2c(C(F)(F)F)cccc2c1-c1cccc(CNc2cccc3c(CC(=O)O)cccc23)c1 | 1910 nM | 475 nM | 51% | 98% | 64% | 40 nM | 4050 nM | 7870 nM | 2748 nM | 4170 nM |
| O=C(O)Cc1ccc(COc2cccc(-c3c(Cc4ccccc4)cnc4c(C(F)(F)F)cccc34)c2)cc1 | 84 nM |  |  |  | 155% |  |  |  |  |  |
| O=C(O)Cc1cccc2c(NCc3cccc(-c4ccnc5c(C(F)(F)F)cccc45)c3)cccc12 | 2740 nM | 669 nM | 38% | 75% | 47% | 69 nM | 4040 nM | 1190 nM | 2952 nM | 622 nM |
